Data published in publication PMC8961646, “Fibroblast Activation Protein Specific Optical Imaging in Non-Small Cell Lung Cancer” (Frontiers in Oncology, 2022).
Non-standard residues stand in square brackets, D forms with d. Residues, ends and D or L forms follow the SMILES beside them. *: point of attachment. 5FAM = O=C1OC2(c3ccc(O)cc3Oc3cc(O)ccc32)c2ccc(C(=O)*)cc21; MethylRed = CN(C)c1ccc(/N=N/c2ccccc2C(=O)*)cc1; AEEA = NCCOCCOCC(=O)O

Tests used:
Type in all cases: biochemical
MMP 2 = molecular target: T1, MMP 2 (Homo sapiens, UniProt P08253); experiment: Probe assessment against recombinant MMP panel; conditions: recombinant enzyme, n=2 run in triplicate
T1 sequence (P08253 110-660): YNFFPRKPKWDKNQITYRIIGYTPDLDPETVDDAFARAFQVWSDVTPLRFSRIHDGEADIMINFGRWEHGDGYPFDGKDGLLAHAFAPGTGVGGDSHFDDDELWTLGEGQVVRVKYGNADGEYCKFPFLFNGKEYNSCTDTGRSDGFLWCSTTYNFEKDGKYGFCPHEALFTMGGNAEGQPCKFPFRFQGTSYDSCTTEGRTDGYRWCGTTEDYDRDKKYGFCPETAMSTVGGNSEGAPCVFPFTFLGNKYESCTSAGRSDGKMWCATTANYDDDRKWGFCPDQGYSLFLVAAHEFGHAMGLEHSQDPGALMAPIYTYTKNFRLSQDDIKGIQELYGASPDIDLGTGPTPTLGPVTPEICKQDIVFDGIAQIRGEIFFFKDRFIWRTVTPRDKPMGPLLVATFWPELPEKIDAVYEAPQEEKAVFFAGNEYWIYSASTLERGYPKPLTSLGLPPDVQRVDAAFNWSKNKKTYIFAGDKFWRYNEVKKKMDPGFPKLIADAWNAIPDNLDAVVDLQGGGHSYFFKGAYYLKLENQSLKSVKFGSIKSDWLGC

rhFAP = molecular target: T2, rhFAP (Homo sapiens, UniProt Q12884); experiment: Probe cleavage by recombinant human FAP (fluorescence plate assay, MALDI confirmation)
T2 construct: purchased R&D Systems
T2 sequence (Q12884 26-760 limits assumed): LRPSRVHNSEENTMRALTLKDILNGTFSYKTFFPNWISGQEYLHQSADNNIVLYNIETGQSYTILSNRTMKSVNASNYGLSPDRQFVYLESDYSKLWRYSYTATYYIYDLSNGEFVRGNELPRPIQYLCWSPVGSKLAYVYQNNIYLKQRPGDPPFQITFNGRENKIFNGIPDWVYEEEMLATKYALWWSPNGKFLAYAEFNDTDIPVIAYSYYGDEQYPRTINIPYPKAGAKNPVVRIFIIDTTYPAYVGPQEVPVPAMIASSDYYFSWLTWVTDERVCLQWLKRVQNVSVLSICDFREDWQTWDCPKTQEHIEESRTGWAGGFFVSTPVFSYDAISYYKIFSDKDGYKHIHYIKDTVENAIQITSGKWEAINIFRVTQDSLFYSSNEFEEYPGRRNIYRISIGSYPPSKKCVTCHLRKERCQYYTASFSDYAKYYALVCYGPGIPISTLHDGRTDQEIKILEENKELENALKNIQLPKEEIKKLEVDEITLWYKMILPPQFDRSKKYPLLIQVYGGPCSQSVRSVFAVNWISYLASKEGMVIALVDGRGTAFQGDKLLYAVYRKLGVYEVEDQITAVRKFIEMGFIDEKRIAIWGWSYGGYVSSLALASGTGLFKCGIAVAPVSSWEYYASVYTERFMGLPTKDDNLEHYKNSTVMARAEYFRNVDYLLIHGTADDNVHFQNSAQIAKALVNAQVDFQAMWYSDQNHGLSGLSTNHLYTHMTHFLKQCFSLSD

MMP 13 = MMP 13 (Homo sapiens, UniProt P45452); experiment: Probe assessment against recombinant MMP panel; conditions: recombinant enzyme, n=2 run in triplicate

CC(C)[C@H](NC(=O)[C@@H](N)CCCCNC(=O)c1ccccc1/N=N/c1ccc(N(C)C)cc1)C(=O)N[C@H](CO)C(=O)N1CCC[C@H]1C(=O)N[C@@H](CC(N)=O)C(=O)N[C@@H](CCC(N)=O)C(=O)NCC(=O)N[C@@H](CCCCNC(=O)c1ccc2c(c1)C(=O)OC21c2ccc(O)cc2Oc2cc(O)ccc21)C(=O)NCCOCCOCC(=O)N[C@H](CCCCN)C(=O)NCCOCCOCC(=O)N[C@H](CCCCN)C(=O)NCCOCCOCC(=O)N[C@H](CCCCN)C(N)=O [FAP3] (H-K(MethylRed)V[dS]PNQGK(5FAM)[AEEA][dK][AEEA][dK][AEEA][dK]-NH2)
Activity with MMP 2 (MMP 2): no activity
Cleavage of FAP3 by rhFAP confirmed by MALDI (rhFAP; MALDI-TOF read-out, cleavage post proline): confirming the cleavage
FAP specificity (over PREP) (rhFAP; probe 5 µM, rhFAP compared with rhPREP, each 0.1 µg/ml): demonstrated FAP specificity
Activity with MMP 13 (MMP 13): no activity
